Assay: absorption of moisturizing composition by the skin
Type: in vivo
Conditions: replacing 20% by weight of the avocado oil or apricot kernel oil in moisturizing compositions
Description: The triglyceride quaternary ammonium compounds of formula I in which R is C16 -C20 alkyl are valuable additives to a range of cosmetic and toiletry compositions. They are particularly useful in moisturizing compositions containing natural triglycerides which are not easily absorbed by the skin. Examples of such natural triglycerides are avocado oil and apricot kernel oil which are the major natural triglyceride oil components of certain commercially available moisturizing lotions and creams.

Question: With `CCCCCCCCCCCCCCCCCC[N+](C)(C)CC(=O)OC(CC=CCCCCCCCC(=O)OCC(COC(=O)CCCCCCCC=CCC(CCCCCC)OC(=O)C[N+](C)(C)CCCCCCCCCCCCCCCCCC)OC(=O)CCCCCCCC=CCC(CCCCCC)OC(=O)C[N+](C)(C)CCCCCCCCCCCCCCCCCC)CCCCCC` (stereo not shown) [Example 1, propane-1,2,3-tri[octadec-9-en-12-(oxycarbonyl-N-methylene-N,N-dimethyl-N-octadecylammonium chloride)oate]] as the compound, how does the “improvement in the absorption of the composition by the skin” value read?
Answer: significant improvement

Reference: patent US4857310A, “Triglyceride quaternary ammonium compounds, their preparation and use” (The Gillette Company, priority 1987, dated 1989)
